Laboratory results taken from patent US20020012949A1, “Assay systems for leptin-enhancing agents” (priority 1997, published 2002).

How the values were obtained:
[1] = tested on: EPOR-cyto-Trx and GST-SHP1-SH2; experiment: Competition of EPOR-cyto-Trx for GST-SHP1-SH2 binding; settings: 4 μM peptide, 15 nM EPOR-cyto-P, 200 nM GST-SHP1-SH2
Description: FIG. 10. Competition for GST-SHP1-SH2 or GST-SHP2-SH2 binding to EPOR-cyto-P by a phosphopeptide derived from the sequence surrounding Y401 of the cytoplasmic domain of the EPO receptor. 200 nM GST-SHP1-SH2 or GST-SHP2-SH2, 15 nM EPOR-cyto-P, with and without 4 μM peptide were incubated together. GST-SHP1-SH2 or GST-SHP2-SH2 was immunoprecipitated with Glutathione Sepharose (Pharmacia), and co-precipitating EPOR-cyto-P was visualized with an anti-Trx antibody.
(§1) Bindings were done as immunoprecipitations. Binding concentrations were typically 200 nM GST-SHP2-SH2 or GST-SHP1-SH2 and 15 nM phosphopeptide or cytoplasmic domain fusion in TBST (20 mM Tris, 150 mM NaCl, 0.1% Tween 20, pH 7.4) at 4° C. overnight. After binding either anti-flag mAb, M2, was added (for the phosphopeptide and flag tagged GST-OB-R-cyto) or anti-myc mAb, 9E10, was added (for the myc tagged GST-OB-R-cyto) and the proteins were precipitated with protein G-sepharose. Proteins were then detected on western blots using anti-GST polyclonal antibodies. For the EPOR-cyto-Trx fusion, the protein complexes were precipitated with glutathione-sepharose and the EPOR-cyto-Trx fusion was detected with anti-Trx polyclonal antibodies.
In this competition the complexes were precipitated with glutathione-sepharose and the EPOR-cyto-Trx was detected by western blot using anti-Trx antibodies. […]

GST-SHP1-SH2 = molecular target: T1, GST-SHP1-SH2 (Homo sapiens, UniProt P29350); experiment: Binding to GST-SHP1-SH2 by immunoprecipitation and western blot; settings: 200 nM GST-SHP1-SH2, 15 nM phosphopeptide or cytoplasmic domain fusion, TBST, 4° C. overnight
T1 construct: Amino acids 2-221 of SHP1 were cloned as a EcoRI/BglII fragment into pGEX-3X; made in house; host or cells: E. coli
T1 sequence (P29350 2-221): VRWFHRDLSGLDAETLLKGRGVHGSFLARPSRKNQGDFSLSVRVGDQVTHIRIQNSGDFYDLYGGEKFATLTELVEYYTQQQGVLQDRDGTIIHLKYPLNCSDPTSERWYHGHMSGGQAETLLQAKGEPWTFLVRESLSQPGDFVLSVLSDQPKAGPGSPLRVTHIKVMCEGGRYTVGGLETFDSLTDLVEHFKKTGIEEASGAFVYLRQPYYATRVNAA
Description: The GST-SHP1-SH2 construct consists of the two SH2 domains of SHP1fused downstream of GST. Amino acids 2-221 of SHP1 were cloned as a EcoRI/BglII fragment into pGEX-3X and expressed in E. coli.
as §1

[2] = molecular target: T2, TOBR (TrkC-OB-R chimeric receptor) (Homo sapiens, UniProt P48357+Q16288); experiment: Luciferase reporter gene assay, TrkC-OB-R chimeric receptor TOBR in neuroblastoma (NBFL) cells; format: cell-based; settings: NT-3 at 20 ng/ml for 36 hours
T2 construct: TrkC (amino acids 1 to 458) to the cytoplasmic domain of OB-R (amino acids 865-1165); expressed in transfected cells; host or cells: NBFL neuroblastoma cells

TOBRY986F = molecular target: T3, TOBRY986F (Homo sapiens, UniProt P48357+Q16288, Y986F); experiment: Luciferase reporter gene assay, TrkC-OB-R chimeric receptor TOBRY986F in neuroblastoma (NBFL) cells; format: cell-based; settings: NT-3 at 20 ng/ml for 36 hours
T3 construct: TrkC (amino acids 1 to 458) to the cytoplasmic domain of OB-R (amino acids 865-1165); expressed in transfected cells; host or cells: NBFL neuroblastoma cells

[3] = molecular target: T4, TrkC--OB-R chimera (TOBR) (Homo sapiens, UniProt P48357+Q16288); experiment: Immunoprecipitation and western blotting of tyrosine phosphorylation, NT-3-stimulated COS cells expressing TOBR; format: cell-based; settings: 50 ng/ml human NT-3 for 15 min
T4 construct: TrkC (amino acids 1 to 458) to the cytoplasmic domain of OB-R (amino acids 865-1165); expressed in transfected cells; host or cells: COS-7
Description: The cytoplasmic domain and full-length human OB-R was cloned by PCR using human fetal liver and adipocyte cDNA (Clontech) and cloned into the expression vectors pCMX and pMT21. Chimeric receptors were constructed by fusing the extracellular domain and transmembrane domain of TrkC (amino acids 1 to 458) to the cytoplasmic domain of OB-R (amino acids 865-1165). A triple myc epitope tag was added at the C-terminus of all OB-R constructs (18). Truncation and point mutant constructs were generated by PCR and the sequences of all constructs were verified. Expression constructs were transfected into COS-7 cells using lipofectamine (GIBCO-BRL); 36-48 hours after transfection, cells were starved for either 2 hour,s for chimeric receptors or overnight for full-length receptors prior to stimulation.
Cells were stimulated with 50 ng/ml of human NT-3 for 15 min or 100 ng/ml of human leptin (R&D Systems) for 10 min. Cells were then lysed in a 1% Brij 96 buffer and receptor was immunoprecipitated with anti-myc antibody 9E10 (18) followed by protein G-sepharose (Pharmacia). Unbound lysate was then immunoprecipitated with anti-P-Tyr antibody (UBI, Lake Placid) or agarose-conjugated anti-SHP-2 antibody (Santa Cruz Biotechnology). […] Endogenous STAT3, SHP-2, Jak1 and Jak2 is being detected in all immunoblotting experiments. […]

[4] = molecular target: T5, GST-OB-R-cyto/3myc and GST-SHP1-SH2 (Homo sapiens, UniProt P29350); experiment: Competition for binding of GST-OB-R-cyto/3myc and GST-SHP1-SH2; settings: 4 μM phosphopeptide, 15 nM cytoplasmic domain, 200 nM GST-SHP1-SH2
T5 construct: Amino acids 2-221 of SHP1 were cloned as a EcoRI/BglII fragment into pGEX-3X; made in house; host or cells: E. coli (OB-R-cyto co-expressed with the ELK tyrosine kinase)
T5 sequence (P29350 2-221): T1 sequence (P29350 2-221)
Description: (§2) FIG. 9. Competition for GST-SHP1-SH2 or GST-SHP2-SH2 binding to OB-R-cyto-P by a phosphopeptide containing the sequence surrounding Y986 in OB-R. 200 nM GST-SHP1-SH2 or GST-SHP2-SH2, 15 nM OB-R-cyto-P, with and without 4 μM peptide were incubated together. OB-R-cyto-P was immunoprecipitated with an antibody to the myc epitope tag, and co-precipitating GST-SHP1-SH2 or GST-SHP2-SH2 was visualized with an anti-GST antibody.
(§3) Bindings were done as immunoprecipitations. Binding concentrations were typically 200 nM GST-SHP2-SH2 or GST-SHP1-SH2 and 15 nM phosphopeptide or cytoplasmic domain fusion in TBST (20 mM Tris, 150 mM NaCl, 0.1% Tween 20, pH 7.4) at 4° C. overnight. […] Proteins were then detected on western blots using anti-GST polyclonal antibodies. For the EPOR-cyto-Trx fusion, the protein complexes were precipitated with glutathione-sepharose and the EPOR-cyto-Trx fusion was detected with anti-Trx polyclonal antibodies.
(§4) In this experiment the SH2 domain, the cytoplasmic domain, and the peptide were mixed and allowed to reach equilibrium. The receptor cytoplasmic domain was precipitated with anti-myc mAb and complexed GST-SHP1-SH2 and GST-SHP2-SH2 were detected by western blot with an anti-GST antibody.

[5] = molecular target: T6, GST-OB-R-cyto/3myc and GST-SHP2-SH2 (Homo sapiens, UniProt Q06124); experiment: Competition for binding of GST-OB-R-cyto/3myc and GST-SHP2-SH2; settings: 4 μM phosphopeptide, 15 nM cytoplasmic domain, 200 nM GST-SHP2-SH2
T6 construct: The fusion has aa 2-224 of SHP2 cloned as an EcoRI/BamHI fragment into pGEX-3X; made in house; host or cells: E. coli (OB-R-cyto co-expressed with the ELK tyrosine kinase)
T6 sequence (Q06124 2-224): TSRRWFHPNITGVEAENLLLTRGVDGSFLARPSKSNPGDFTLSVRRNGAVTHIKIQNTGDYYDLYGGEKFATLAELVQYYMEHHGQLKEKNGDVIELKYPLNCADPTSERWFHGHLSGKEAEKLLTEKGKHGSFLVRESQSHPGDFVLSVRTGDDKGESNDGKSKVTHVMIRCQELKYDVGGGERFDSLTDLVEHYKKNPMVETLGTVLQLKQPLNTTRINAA
Description: as §2, §3, §4

GST-SHP2-SH2 = molecular target: T7, GST-SHP2-SH2 (Homo sapiens, UniProt Q06124); experiment: Binding to GST-SHP2-SH2 by immunoprecipitation and western blot; settings: 200 nM GST-SHP2-SH2, 15 nM phosphopeptide or cytoplasmic domain fusion, TBST, 4° C. overnight
T7 construct: The fusion has aa 2-224 of SHP2 cloned as an EcoRI/BamHI fragment into pGEX-3X; made in house; host or cells: E. coli
T7 sequence (Q06124 2-224): T6 sequence (Q06124 2-224)
Description: The GST-SHP2-SH2 construct consists of the two SH2 domains of SHP2fused downstream of glutathione-S-transferase (GST) from Schistosoma japonicum. The fusion has aa 2-224 of SHP2 cloned as an EcoRI/BamHI fragment into pGEX-3X and was expressed in E. coli. The SHP2-SH2-Fc construct consists of the same amino acids as the above fusion fused to human IgG-Fc as a BlpI/SrfI fragment in pMT21 and was expressed in COS-7 cells.
as §1

Row | Substance | competition of EPOR-cyto-Trx for GST-SHP1-SH2 binding [1] | binding to GST-SHP1-SH2 (GST-SHP1-SH2) | binding to GST-SHP1-SH2 (GST-SHP1-SH2; listed as synthetic phosphopeptide from EPOR) | increase in luciferase activity [2] | increase in luciferase activity (TOBRY986F) | tyrosine phosphorylation of TOBR and downstream signaling molecules [3] | competition for binding of GST-OB-R-cyto/3myc and GST-SHP1-SH2 [4] | competition for binding of GST-OB-R-cyto/3myc and GST-SHP2-SH2 [5] | binding to GST-SHP2-SH2 (GST-SHP2-SH2)
1 | CPHLKp-YLYLVVSDDYKDDDDK [EPOR phosphopeptide] | a small amount of competition | bound | Very poor binding | – | – | – | – | – | –
2 | NT-3: neurotrophin-3, surrogate ligand used to activate the TrkC-OB-R chimeric receptors | – | – | – | ~8 fold | ~45 fold | resulted in ligand-dependent tyrosine phosphorylation | – | – | –
3 | QPFVKp-YATLISNDYKDDDDK [OB-R phosphopeptide] | a small amount of competition | bound | – | – | – | – | no competition | no competition | bound specifically
